Like-named read-outs stand apart in the source and are kept apart here.
What was measured:
Nephelometric solubility = format: physicochemical; conditions: maximal solubility in DMEM + 10 % FCS
Procedure: Solubility of Scaff10 derivatives was assessed nephelometrically. Scaff10 derivatives are moderately to poorly soluble in aqueous solutions due to their large number of aromatic rings having lipophilic character. Details about NMR, LC/MS and HPLC characterization steps are given in the Supplemental Information.
Suppl. Tab. 3: Overview of all 55 Scaff10 derivatives.Structures labeld with 1 were commercially obtained. MW = molecular weight. logP = calculated partition coefficient (using […]
Solubility was assessed nephelometrically in DMEM + 10 % FCS + Scaff10 derivative with either 0.3 or 2 % DMSO
final concentration; values in µM indicate maximal solubility of the compound under the respective condition. Yield in % indicates total yield of the last step of chemical synthesis
for each of Scaff10 derivatives. n.d. = not determined. n.i. = not indicated.
Scaff10 MW Number of exp. 2 % DMSO 0.3 % DMSO Scaff10 Yield
Structure log P Disruption of the PPI IC50 [µM]
derivative [g/mol] in dupl. [µM] [µM] class [%]

[1] = molecular target: T1, interaction of AKAP-Lbc/DHPH and RhoA (Homo sapiens, UniProt P61586); assay: Homogeneous time-resolved fluorescence (HTRF) assay; format: binding; conditions: for inhibitory effect on the AKAP-Lbc/DHPH-RhoA interaction: result in words
T1 construct: His6-AKAP-Lbc/DHPH (aa 1972–2342 of human AKAP-Lbc; NP_006729.4); made in house
T1 sequence (P61586 whole entry, the tested form may be a part): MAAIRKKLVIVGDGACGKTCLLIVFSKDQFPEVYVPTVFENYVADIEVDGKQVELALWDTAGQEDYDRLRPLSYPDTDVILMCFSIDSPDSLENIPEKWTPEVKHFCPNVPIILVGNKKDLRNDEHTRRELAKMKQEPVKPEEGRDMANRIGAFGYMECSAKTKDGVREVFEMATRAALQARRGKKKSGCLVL
Source text: Fig 2 The small molecule Scaff10-8 inhibits the interaction of the DH domain of AKAP-Lbc and RhoA. (A). Principle of homogenous time-resolved fluorescence (HTRF) assay. Recombinant His-AKAP-Lbc/DHPH and GST-RhoA were generated. The tags are recognized by specific antibodies coupled to fluorescent dyes. When the two proteins interact, donor and acceptor dyes of the antibodies are in close proximity, energy transfer occurs upon excitation at 320 nm and a FRET signal is detected (665 nm). If a compound disrupts the interaction of the DHPH domain and RhoA, the proximity of the fluorescent moieties remains insufficient for a FRET signal to occur. […] As expected, excess untagged Rho decreases the binding between GST-RhoA and His-AKAP-Lbc/DHPH in a dose-dependent manner (lower left panel). […] (C) The influence of Scaff10-8 on the interaction of RhoA with the recombinant DH domain of AKAP-Lbc in the absence of the PH domain was determined by Alpha screen. […] The IC50 value is indicated.
The assay was essentially carried out as described. Scaff10 derivatives were added to His6-AKAP-Lbc/DHPH protein (250 nM final concentration) in HTRF buffer (PBS; 4 mM MgCl2; 0.05% Tween 20) in 384 well plates (Proxiplate-384 Plus, white, #6008289; Perkin Elmer LAS, Rodgau, Germany). Concentrations of Scaff10 derivatives ranged between 1.56–200 μM (2% DMSO final concentration); HTRF buffer with 2% DMSO served as a control. GST-RhoA (30 nM final concentration) in HTRF buffer and anti-GST antibody coupled to terbium (donor) and anti-His6-tag antibody coupled to XL665 (acceptor) were added to all wells (final antibody concentration: 2 μg/ml). After 1 h incubation at room temperature in the dark, FRET signals were recorded at 620 and 665 nm using a Genios Pro plate reader (Tecan Austria GmbH, Grödig, AT) and the ratios of […] to 620 nm were calculated. Wells containing no compound were set to 100% interaction of AKAP-Lbc/DHPH with RhoA, wells containing GST-RhoA only (without His6-AKAP-Lbc/DHPH) were set to 0% interaction. To exclude any interference of the tags and/or antibodies with Scaff10 derivatives, a His6-GST fusion protein replaced the two tagged proteins in a control assay. Wells containing His6-GST fusion protein were set to 100% interaction of His6-GST, wells containing no fusion protein were set to 0% interaction.

[2] = DMEM + 10 % FCS, plasma or biological fluid, kinetic from dmso stock, 2 % DMSO final, read-out: Solubility 2 % DMSO
[3] = Suppl. Tab. 3, ± SEM, '-' = no IC50, inactive, n.d. = not determined, read-out: HTRF assay IC50
[4] = 2 % DMSO final, read-out: Solubility 2 % DMSO
[5] = DMEM + 10 % FCS, plasma or biological fluid, kinetic from dmso stock, 0.3 % DMSO final, read-out: Solubility 0.3 % DMSO
[6] = Table 1, HTRF, '-' = no IC50, inactive (n.d. is used separately in S3 Table), read-out: IC50 ± SEM
[7] = 0.3 % DMSO final, read-out: Solubility 0.3 % DMSO
[8] = IC50 ± SEM, Table 1, HTRF, '-' = no IC50, inactive (n.d. is used separately in S3 Table)
[9] = IC50 for inhibition of the AKAP-Lbc/DHPH-RhoA interaction, HTRF, text and figures, ± SEM, n = 3–15 in duplicate

Row | solubility (Nephelometric solubility; [2]) [µM] | IC50 [1, 3] [µM] | solubility (Nephelometric solubility; [4]) [µM] | solubility (Nephelometric solubility; [5]) [µM] | IC50 [1, 6] [µM] | SMILES | further results
1 | 15 |  |  | 40 |  | COc1ccc2cc(-c3coc4cc5oc(=O)c(CCC(=O)O)c(C)c5cc34)ccc2c1 [Scaff10-44] | IC50 [1, 8]: 20.7 ± 2.5 µM
2 |  |  | 15 |  | > 200 | COc1ccc2cc(-c3coc4cc5oc(=O)c(C)c(C)c5cc34)ccc2c1 [Scaff10-47] | solubility (Nephelometric solubility; [7]): > 150 µM; inhibitory effect on the AKAP-Lbc/DHPH-RhoA interaction ([1]; HTRF): no inhibitory effect
3 | > 100 |  |  | > 150 | 56.4 ± 4.5 | COc1ccc(-c2coc3cc4oc(=O)c(CC(=O)O)c(C)c4cc23)cc1 [Scaff10-49] | IC50 ([1]; HTRF, text and figures, ± SEM, n = 3–15 in duplicate, read-out: IC50 for inhibition of the AKAP-Lbc/DHPH-RhoA interaction): 56 ± 5 µM
4 | 70 | 26.8 ± 3.5 |  | > 150 |  | COc1ccc(-c2coc3c(C)c4oc(=O)c(CCC(=O)O)c(C)c4cc23)cc1 [Scaff10-50] | 
5 |  |  | 20 |  | > 200 | COc1ccc(-c2coc3cc4oc(=O)c(CCC(=O)NO)c(C)c4cc23)cc1 [Scaff10-51] | solubility (Nephelometric solubility; [7]): 40 µM; inhibitory effect on the AKAP-Lbc/DHPH-RhoA interaction ([1]; HTRF): almost complete loss of activity
6 | > 100 |  |  | > 150 | 66.7 ± 7.5 | Cc1c(CCC(=O)O)c(=O)oc2cc3occ(-c4ccccc4)c3cc12 [Scaff10-58] | 
7 |  |  |  | > 150 |  | COc1ccc(-c2coc3cc4oc(=O)c(CCC(=O)NCC(=O)O)c(C)c4cc23)cc1 [Scaff10-61] | IC50 [1, 8]: 64 ± 6 µM
8 | 30 |  |  | 75 |  | COc1cccc(-c2ccc(C(=O)COc3ccc4c(C)c(CCC(=O)O)c(=O)oc4c3)cc2)c1 [Scaff10-63] | IC50 [1, 9]: 24 ± 8 µM; IC50 [1, 8]: 24.4 ± 8.4 µM
9 | 70 |  |  | > 150 |  | COc1cccc(-c2ccc(-c3coc4cc5oc(=O)c(CCC(=O)O)c(C)c5cc34)cc2)c1 [Scaff10-64] | IC50 [1, 8]: 28.9 ± 9.3 µM

Further lines, the molecule ahead of its results:

Row | SMILES | solubility (Nephelometric solubility; [2]) [µM] | IC50 [1, 3] [µM] | solubility (Nephelometric solubility; [4]) [µM] | solubility (Nephelometric solubility; [5]) [µM] | IC50 [1, 6] [µM] | further results
10 | COc1ccc(C(=O)COc2ccc3ccc(=O)oc3c2)cc1 [AE167, 7-[2-(4-Methoxyphenyl)-2-oxo-ethoxy]chromen-2-one] | 30 | > 200 |  |  |  | 
11 | COc1ccc(C(=O)COc2ccc3c(C)c(C)c(=O)oc3c2)cc1 [AE168, [2-(4-Methoxyphenyl)-2-oxo-ethoxy]-3,4-dimethyl-chromen-2-one] |  | > 200 | 75 |  |  | 
12 | COc1ccc(-c2coc3cc4oc(=O)ccc4cc23)cc1 [Scaff10-1, 3-(4-Methoxyphenyl)furo[3,2-g]chromen-7-one] | 45 | > 200 |  | 40 |  | 
13 | Cc1c(C)c2ccc(OCC(=O)c3cccnc3)cc2oc1=O [Scaff10-2, 3,4-Dimethyl-7-[2-oxo-2-(3-pyridyl)ethoxy]chromen-2-one] | 90 | > 200 |  | 75 |  | 
14 | Cc1c(C)c2cc3c(-c4cccnc4)coc3cc2oc1=O [Scaff10-3, 5,6-Dimethyl-3-(3-pyridyl)furo[3,2-g]chromen-7-one] | 40 | > 200 |  | > 150 |  | 
15 | Cc1nc(-c2ccc(F)cc2)ccc1C(=O)COc1ccc2c(C)c(C)c(=O)oc2c1 [Scaff10-4, 7-[2-[6-(4-Fluorophenyl)-2-methyl-3-pyridyl]-2-oxo-ethoxy]-3,4-dimethyl-chromen-2-one] | 40 | > 200 |  | > 150 |  | 
16 | Cc1nc(-c2ccc(F)cc2)ccc1-c1coc2cc3oc(=O)c(C)c(C)c3cc12 [Scaff10-5, 3-[6-(4-Fluorophenyl)-2-methyl-3-pyridyl]-5,6-dimethyl-furo[3,2-g]chromen-7-one] | 65 | > 200 |  | > 150 |  | 
17 | COc1ccc(C(=O)COc2ccc3c(C)c(CCC(=O)O)c(=O)oc3c2)cc1 [Scaff10-6, 3-[7-[2-(4-Methoxyphenyl)-2-oxo-ethoxy]-4-methyl-2-oxo-chromen-3-yl]propanoic acid] | 100 |  |  | > 150 | > 200 | 
18 | COc1ccc(C(=O)COc2ccc3c(C)c(CCC(=O)NCCNC(=O)CCCCC4SCC5NC(=O)NC54)c(=O)oc3c2)cc1 (stereo not drawn) [Scaff10-9, N-[2-[3-[7-[2-(4-Methoxyphenyl)-2-oxo-ethoxy]-4-methyl-2-oxo-chromen-3-yl]propanoylamino]ethyl]-5-(2-oxo-1,3,3a,4,6,6a-hexahydrothieno[3,4-d]imidazol-4-yl)pentanamide] |  | > 200 |  |  |  | 
19 | CCOC(=O)CCc1c(C)c2ccc(OCC(=O)c3ccc(-c4ccc(F)cc4)nc3C)cc2oc1=O [Scaff10-10, Ethyl 3-[7-[2-[6-(4-fluorophenyl)-2-methyl-3-pyridyl]-2-oxo-ethoxy]-4-methyl-2-oxo-chromen-3-yl]propanoate] |  | > 200 | 30 |  |  | solubility (Nephelometric solubility; [7]): > 150 µM
20 | COc1ccc(-c2coc3cc4oc(=O)c(CCC(=O)N(C)C)c(C)c4cc23)cc1 [Scaff10-26] |  |  | 50 |  | > 200 | solubility (Nephelometric solubility; [7]): > 150 µM; inhibitory effect on the AKAP-Lbc/DHPH-RhoA interaction ([1]; HTRF): complete loss of the inhibitory effect
21 | Cc1c(CCC(=O)O)c(=O)oc2cc3occ(-c4ccc(C(F)(F)F)cc4)c3cc12 [Scaff10-30] | > 100 |  |  |  |  | inhibitory effect on the AKAP-Lbc/DHPH-RhoA interaction ([1]; HTRF): reduced; IC50 [1, 8]: 47.8 ± 7.8 µM
22 | Cc1c(CCC(=O)O)c(=O)oc2cc3occ(-c4ccncc4)c3cc12 [Scaff10-32] |  |  | > 100 |  | > 200 | solubility (Nephelometric solubility; [7]): > 150 µM; inhibitory effect on the AKAP-Lbc/DHPH-RhoA interaction ([1]; HTRF): complete loss of activity
23 | Cc1c(CCC(=O)O)c(=O)oc2cc(OCC(=O)c3ccc(N(C)C)cc3)ccc12 [Scaff10-35] |  |  | > 100 |  | > 200 | solubility (Nephelometric solubility; [7]): > 150 µM; inhibitory effect on the AKAP-Lbc/DHPH-RhoA interaction ([1]; HTRF): complete loss of activity
24 | Cc1c(CCC(=O)O)c(=O)oc2cc(OCC(=O)c3ccc(-c4ccccc4)cc3)ccc12 [Scaff10-40] | 15 |  |  | 10 |  | IC50 [1, 9]: 21 ± 3 µM; IC50 [1, 8]: 20.8 ± 2.6 µM
25 | Cc1c(CCC(=O)O)c(=O)oc2cc3occ(-c4ccc(-c5ccccc5)cc4)c3cc12 [Scaff10-41] | 50 |  |  |  |  | IC50 [1, 8]: 29.1 ± 2.6 µM
26 | Cc1c(C)c2cc3c(-c4ccc(-c5ccccc5)cc4)coc3cc2oc1=O [Scaff10-46] |  |  | 15 |  | > 200 | solubility (Nephelometric solubility; [7]): > 150 µM; inhibitory effect on the AKAP-Lbc/DHPH-RhoA interaction ([1]; HTRF): no inhibitory effect

From publication PMC5786306, “An AKAP-Lbc-RhoA interaction inhibitor promotes the translocation of aquaporin-2 to the plasma membrane of renal collecting duct principal cells” (PLoS ONE, 2018)
